{
  "source": "paper PMC6150735",
  "about": "“Molecular Docking-Based Design and Development of a Highly Selective Probe Substrate for UDP-glucuronosyltransferase 1A10” (Molecular Pharmaceutics, 2018)",
  "key": {"UGT1A10": {"molecular_target": "T1, UGT1A10 (Homo sapiens, UniProt Q9HAW8)", "T1 construct": "His-tag; made in house; host or cells: baculovirus-infected insect cells", "T1 sequence (Q9HAW8 26-530)": "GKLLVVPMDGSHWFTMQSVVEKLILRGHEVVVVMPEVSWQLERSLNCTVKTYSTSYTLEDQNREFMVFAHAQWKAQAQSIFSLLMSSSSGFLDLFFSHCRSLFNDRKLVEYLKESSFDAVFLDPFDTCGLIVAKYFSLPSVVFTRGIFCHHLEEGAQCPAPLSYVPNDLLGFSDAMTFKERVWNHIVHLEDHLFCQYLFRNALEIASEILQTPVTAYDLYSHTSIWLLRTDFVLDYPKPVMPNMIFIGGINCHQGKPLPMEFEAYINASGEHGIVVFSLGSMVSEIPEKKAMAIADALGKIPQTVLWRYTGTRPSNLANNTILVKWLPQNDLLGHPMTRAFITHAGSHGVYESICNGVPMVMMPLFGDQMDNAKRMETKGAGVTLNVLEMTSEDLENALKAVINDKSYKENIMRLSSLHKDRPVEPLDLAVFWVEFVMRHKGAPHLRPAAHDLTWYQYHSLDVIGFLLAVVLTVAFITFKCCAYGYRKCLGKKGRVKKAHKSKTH", "experiment": "Glucuronidation kinetics by recombinant wild-type UGT1A10 (fluorescence decrease, 96-well plate)", "assay_type": "biochemical", "description": "Recombinant human UGTs 1A1, 1A3, 1A6, 1A7, 1A8, 1A9, 1A10, 2A1, 2A2, 2A3, 2B4, 2B10, 2B7, and 2B17 were produced, as His-tagged proteins, in baculovirus-infected insect cells as previously described.[37]−[39] The relative expression level of each of these recombinant UGTs was evaluated by immunodetection, using monoclonal antibody against the His-tag, as described elsewhere.[40] A numeric value of 1.0 was given to the expression level of UGT1A8 and the relative expression level of each of the other UGTs was related to this value. Normalized activities were obtained by dividing the glucuronidation rate values by the relative expression level of the tested UGT. […] The expression levels of the UGTs in the commercial samples could not be determined, so their protein concentration was used to calculate the reaction rate.\nThe incubation mixtures for glucuronidation assays contained 100 mM Tris-HCl buffer pH 7.4, 2.5 mM MgCl2, 0.5 mM UDPGA, recombinant UGT, or microsomes as the enzyme source and 0–15 μM of the test aglycone substrate. […] In subsequent experiments, the control samples lacked the enzyme source since it gave the highest fluorescence background. […] Fluorescence spectra (excitation 200–420 nm; emission 400–600 nm) or fluorescence decrease at 390 nm excitation and 460 nm emission, were measured in these preliminary experiments, using a Shimadzu RF-5000 spectrophotofluorometer. […]"}, "human UGTs": {"system": "human UGTs", "experiment": "Recombinant human UGT screen: glucuronidation rates across human UGTs", "assay_type": "biochemical", "conditions": "10 μM aglycone; other UGTs at very low rates", "description": "Recombinant human UGTs 1A1, 1A3, 1A6, 1A7, 1A8, 1A9, 1A10, 2A1, 2A2, 2A3, 2B4, 2B10, 2B7, and 2B17 were produced, as His-tagged proteins, in baculovirus-infected insect cells as previously described.[37]−[39] The relative expression level of each of these recombinant UGTs was evaluated by immunodetection, using monoclonal antibody against the His-tag, as described elsewhere.[40] A numeric value of 1.0 was given to the expression level of UGT1A8 and the relative expression level of each of the other UGTs was related to this value. Normalized activities were obtained by dividing the glucuronidation rate values by the relative expression level of the tested UGT. In addition, UGTs 1A4, 2B10, and 2B15 were purchased from Corning Life Sciences (New York) and are marked, in Figure 5, with a “C” to indicate that they are commercial enzymes. The expression levels of the UGTs in the commercial samples could not be determined, so their protein concentration was used to calculate the reaction rate.\n(§1) The incubation mixtures for glucuronidation assays contained 100 mM Tris-HCl buffer pH 7.4, 2.5 mM MgCl2, 0.5 mM UDPGA, recombinant UGT, or microsomes as the enzyme source and 0–15 μM of the test aglycone substrate. When the incubation mixtures contained microsomes, alamethicin was used at a final concentration of 12.5 μg/mL, but it was not included in the recombinant enzyme assays.[43] In the first experiments three negative control samples were tested, namely (i) without the substrate 7-hydroxycoumarin derivative, (ii) without the cofactor UDPGA, or (iii) without the enzyme source. In subsequent experiments, the control samples lacked the enzyme source since it gave the highest fluorescence background. Preliminary experiments were done under different conditions than most of the later assays, namely in 2.5 mL of 100 mM phosphate buffer pH 7.4, containing 500 μg pig liver microsomes, 1.0 μM compound 6 and 0.5 mM UDPGA, at room temperature. Fluorescence spectra (excitation 200–420 nm; emission 400–600 nm) or fluorescence decrease at 390 nm excitation and 460 nm emission, were measured in these preliminary experiments, using a Shimadzu RF-5000 spectrophotofluorometer.\n(§2) Most of the glucuronidation assays were carried out in 96 multiwell plate format, and incubations were carried out in 100 μL and at 37 °C, in the presence of Tris–HCl buffer pH 7.4, UDPGA, and the tested 7-hydroxycoumarin derivative, at the indicated concentrations. Fluorescence decline in the multiwell plate experiments was monitored every other minute, for 40 min, using an excitation filter at 405 nm and detection at 460 nm, in a Victor2 1420 Multilabel counter (PerkinElmer, Life Sciences, Turku, Finland). The fluorescence values were transformed into molarity using the aglycone substrates for making the respective standard curves. Slopes of the substrate concentration decrease per minute were calculated using linear regression analysis, in which the linear part of the kinetic assay indicated the glucuronidation rate. Enzyme catalyzed glucuronidation rate was calculated by subtracting the blank value from the full reaction value. The intra-assay variability of the kinetic assays was 6% when compound 6 was used as the aglycone substrate. Kinetic analyses were also performed in the same 96 multiwell plates format, with excitation filter at 405 nm and detection at 460 nm, using 6–8 different substrate concentrations per substrate and two different protein concentrations for both the wild-type and mutant UGT1A10. The higher concentrations, 13.5 mg/L for UGT1A10 and 12.0 mg/L for the UGT1A10 mutant, were used when the substrates were HFC, compounds 4 and 6, whereas the lower protein concentrations, 6.75 and 6.0 mg/L for UGT1A10 and the mutant, respectively, were used when the substrates were compounds 1, 2, 3, and 5."}, "[1]": {"experiment": "Glucuronidation by human liver microsomes (HLM)", "assay_type": "in vitro ADME", "conditions": "pooled human liver microsomes (HLM), pH 7.4; human hepatic microsomes", "description": "(§3) A commercial HLM pool (cat no:452210, BD Gentest, Bedford, MA) and human intestine microsomes (HIM) pool (lot. no 1110189, XenoTech, Kansas City, KS) were purchased. Pig liver samples were prepared from untreated female pigs that were used for practicing surgical procedures at the University of Kuopio (currently: University of Eastern Finland, Kuopio campus). Other animal liver microsomes were prepared as described previously.[41] The Ethics Committee for Animal Experiments, University of Kuopio, approved these experiments.\nas §1, §2"}, "[2]": {"system": "human liver microsomes (HLM)", "experiment": "Glucuronidation by human liver microsomes (HLM)", "assay_type": "in vitro ADME", "description": "as §3, §1, §2"}, "[3]": {"experiment": "Glucuronidation by human intestinal microsomes (HIM)", "assay_type": "in vitro ADME", "conditions": "human, pooled human intestinal microsomes (HIM), pH 7.4", "description": "as §3, §1, §2"}, "[4]": {"system": "human intestinal microsomes (HIM)", "experiment": "Glucuronidation by human intestinal microsomes (HIM)", "assay_type": "in vitro ADME", "description": "as §3, §1, §2"}, "[5]": {"experiment": "Excitation and emission fluorescence spectra of coumarin derivatives", "assay_type": "physicochemical", "parameters": "dose or concentration left out as unconfirmed", "description": "The absorbance spectra of 10 μM coumarin derivatives at 100 mM Tris–HCl pH 7.4 containing 10% dimethyl sulfoxide were measured using a Hitachi U-2000 Spectrophotometer (Tokyo, Japan). […] The excitation spectra was from 200 to 420 at 460 nm emission and the emission spectra was from 400 to 600 at 390 nm excitation (data in Supplementary Table S1 and Figures S1 and S2). The effect of pH on fluorescence intensity was determined at 405 nm excitation and 460 nm emission, in the presence of 1.5% trichloroacetic acid, 100 mM phosphate buffers at pH 5, 6, 7, 8, and 9, or 1.6 M glycine–NaOH pH 10.4."}},
  "note": "Entries after “also recorded” stand apart in the source; their conditions may differ.",
  "data": [
    {"smiles": "O=c1oc2cc(O)ccc2cc1-n1cncn1", "note": "[Compound 6, 7-Hydroxy-3-(1H-1,2,4-triazol-1-yl)-2H-chromen-2-one]", "values": [
      {"measurement": "Intrinsic glucuronidation clearance (Vmax/Km) by UGT1A10 relative to compounds 1–5", "setting": "UGT1A10", "result": "less than 30%"},
      {"measurement": "Selectivity among human UGTs", "setting": "human UGTs", "result": "selective for UGT1A10"},
      {"measurement": "Km", "setting": "[1]", "result": 82, "unit": "µM"},
      {"measurement": "Glucuronidation by HLM (in words)", "setting": "[2]; 10 μM aglycone", "result": "not glucuronidated by HLM at all, or only at very low rates; also recorded: very low or below the detection limit"},
      {"measurement": "Vmax", "setting": "[2]; human hepatic microsomes", "result": "4.0 (2.6–5.4) μmol/(min* g prot)"},
      {"measurement": "Km", "setting": "[3]", "result": 12, "unit": "µM"},
      {"measurement": "Vmax", "setting": "[4]; human intestinal microsomes", "result": "3.5 (2.9–4.0) μmol/(min * g prot)"},
      {"measurement": "Effect of adding albumin on Km and Vmax", "setting": "[4]; intestinal microsomes, albumin in incubation mixture", "result": "increased both Km and Vmax values"},
      {"measurement": "Fluorescence EMmax", "setting": "[5]", "result": 494, "unit": "nm"},
      {"measurement": "Fluorescence EXmax", "setting": "[5]", "result": 396, "unit": "nm"}
    ]}
  ]
}
